Experimental data reported in patent publication US20220259249A1, “INHIBITORS OF ANTIBIOTIC RESISTANCE MEDIATED BY ARNT” (priority 2019, published 2022).
Like-named read-outs stand apart in the source and are kept apart here.

How the values were obtained:
[1] = system: 16HBE cells (human epithelial cells of bronchial origin); assay: Cell viability test (MTT reduction);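 note: formazan absorbance at 570 nm after MTT reduction, corrected for cell-free blank wells, reported relative to untreated cells, from duplicate wells over three independent repeats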
Method: The cytotoxic potential of the compounds was evaluated on cell cultures in vitro. […] The results are reported in the table as viability (%) compared to untreated cells (Table 4).
To evaluate the cytotoxic potential of the compounds under examination, the MTT (3-(4,5-dimethylthiazol-2-yl)-2,5-diphenyltetrazolium) reduction test, commonly used to monitor cell viability was used following the exposure to potentially cytotoxic agents. The essay is based on the reduction of MTT to formazan, a compound that assumes a blue colour which can be evaluated by spectrophotometric reading at a wavelength of 570 nm. For the essay we used the 16HBE cell line. […] Each test was performed in duplicate and three independent replicas were made.
Cell viability was calculated as follows:
COD570=OD570 of sample−OD570 of wells without cells (white)
Viability=100−reduction (%)
where: NT indicates the samples of cells non-threated with the compounds; T the samples of cells treated with the compounds at the different concentrations.
The mean cell viability values were calculated using the Excel mean and standard deviation functions.

[2] = system: P. aeruginosa strains resistant and sensitive to colistin; assay: MIC of colistin in presence of BBN149 or DMSO, P. aeruginosa strains; format: cell-based; details: for MIC of colistin with 0.6% DMSO as a control: colistin without BBN149
Method: (§1) All the colistin-resistant strains used depend on the aminoarabinosylation of lipid A as a mechanism of resistance to colistin (Lo Sciuto e Imperi, 2018; Esposito et al., 2018). […] MIC essays were performed in 96-well microtitration plates, using previously characterized P. aeruginosa and K. pneumoniae strains (Lo Sciuto e Imperi, 2018; Esposito et al., 2018). […] At least three independent experiments were conducted for each strain.

[3] = system: P. aeruginosa PA14 col^R 5 (colistin-resistant strain); assay: microbe, parasite or virus in culture; format: cell-based; details: for IC90: read-out: IC90, synergy with colistin (8 μg/ml)
Method: The compounds identified by in silico screening were tested for their antibacterial activity (in the absence of colistin) and for their synergistic or adjuvant activity with colistin against a colistin-resistant strain of P. aeruginosa grown in the absence or presence of a sub-inhibitory concentration of colistin (8 μg/ml).
This strain over-expresses the am genes responsible for the modification of lipopolysaccharide by the addition of L-amino-arabinose.
The strain was grown in Mueller-Hinton (MH) medium for 8 hours, and inoculated at a cell density of ˜10^6/ml in MH medium supplemented or not with colistin at a concentration of 16 μg/ml. […] The microtitration plates were incubated at 37° C. without stirring for 24 hours. Bacterial growth was assessed by measuring absorbance at 600 nm (A600) in a microplate reader (Victor 2^V, Perkin-Elmer). […] For each compound three independent experiments were conducted, and the averages of the values obtained in the three experiments are considered to determine the values of IC50 e IC90.

[4] = system: colistin-resistant clinical strains of Klebsiella pneumoniae; assay: MIC of colistin in presence of BBN149 or DMSO, K. pneumoniae clinical strains; format: cell-based; details: for MIC of colistin with 0.6% DMSO as a control: colistin without BBN149
Method: as §1

[5] = system: P. aeruginosa PA14 col^R 5 (colistin-resistant strain); assay: Checkerboard assay compound/colistin; format: cell-based
Method: The checkerboard essays were performed in microtiter plates with 96 wells, aliquoting in each column of wells 50 μl of MH medium containing decreasing concentrations of colistin (dilutions in reason of 2 from 384 to 1.5 μg/ml) or without colistin, and in each row of wells further 50 μl of MH medium containing decreasing concentrations of compound of interest (dilutions in reason 2 from […]) or without compound. Finally, 50 μl of the inoculum of the PA14 col^R 5 strain were added to each well at a concentration of ˜1.5×10^6 cells/ml in MH medium, so as to reach a final volume of 150 μl, a bacteria concentration equal to […], colistin concentrations in the range 0-128 μg/ml and concentrations of compounds of interest in the range 0-125 μM. Plates were incubated at 37° C. without shaking for 24 hours, and bacterial growth was assessed by measuring the A600 in a microplate reader (Victor 2^V, Perkin-Elmer). Three independent experiments were conducted for each compound, and the averages of the values obtained in the three experiments were considered to determine the IC90 values.

[6] = 16HBE, 1.95 μM, 18 hours, MTT, vs untreated cells
[7] = 16HBE, 3.91 μM, 18 hours, MTT, vs untreated cells
[8] = 16HBE, 7.81 μM, 18 hours, MTT, vs untreated cells
[9] = 16HBE, 15.63 μM, 18 hours, MTT, vs untreated cells
[10] = 16HBE, 62.5 μM, 18 hours, MTT, vs untreated cells
[11] = 16HBE, 125 μM, 18 hours, MTT, vs untreated cells
[12] = 16HBE, 250 μM, 18 hours, MTT, vs untreated cells
[13] = Pseudomonas aeruginosa, PA14, 24 h, read-out: IC50 without colistin
[14] = compound ≥31 μM, MIC 64 to 8 μg/ml, PA14 col^R 5
[15] = 16HBE, 31.25 μM, 18 hours, MTT, vs untreated cells

C[C@]12C=C[C@@]3(CC[C@@H]4[C@@](C)(COC(=O)C(=O)O)CCC[C@@]4(C)[C@@H]3CC1)C2 [BBN149, ent-beyer-15-en-18-O-oxalic acid]
Average percentage of cell viability (±standard deviation) [1]: 86.07 ± 5.30% | Average percentage of cell viability (±standard deviation) [1, 6]: 94.15 ± 6.34% | Average percentage of cell viability (±standard deviation) [1, 7]: 90.17 ± 7.35% | Average percentage of cell viability (±standard deviation) [1, 8]: 86.13 ± 2.37% | Average percentage of cell viability (±standard deviation) [1, 9]: 90.80 ± 6.31% | Average percentage of cell viability (±standard deviation) [1, 10]: 76.33 ± 2.65% | Average percentage of cell viability (±standard deviation) [1, 11]: 71.99 ± 5.18% | Average percentage of cell viability (±standard deviation) [1, 12]: 65.51 ± 4.05% | activity on colistin-sensitive strains ([2]; 60 μM BBN149, colistin-sensitive P. aeruginosa strains): no relevant activity | MIC of colistin in the presence of 60 μM BBN149 ([2]; strain KK1): 1 µg/mL | MIC of colistin in the presence of 60 μM BBN149 ([2]; strain KK1 col^R 1): 8 µg/mL | MIC of colistin in the presence of 60 μM BBN149 ([2]; strain KK27): 1 µg/mL | MIC of colistin in the presence of 60 μM BBN149 ([2]; strain KK27 col^R 6): 4 µg/mL | MIC of colistin in the presence of 60 μM BBN149 ([2]; strain PA14): 1 µg/mL | MIC of colistin in the presence of 60 μM BBN149 ([2]; strain PA14 col^R 5): 8 µg/mL | MIC of colistin in the presence of 60 μM BBN149 ([2]; strain TR1): 1 µg/mL | MIC of colistin in the presence of 60 μM BBN149 ([2]; strain TR1 col^R 6): 4 µg/mL | IC50 ([3]; Pseudomonas aeruginosa, PA14, 24 h, read-out: IC50, synergy with colistin (8 μg/ml)): 15.6 µM | IC50 [3, 13]: > 250 µM | IC90 ([3]; Pseudomonas aeruginosa, PA14, 24 h): 31.2 µM | inhibition of bacterial growth in the presence of colistin ([3]; colistin 8 μg/ml): able to inhibit bacterial growth in the presence of colistin | antibacterial activity per se ([3]; in the absence of colistin): none of the compounds showed antibacterial activity per se | MIC of colistin in the presence of 60 μM BBN149 ([4]; strain KP-Mo-3): 16 µg/mL | MIC of colistin in the presence of 60 μM BBN149 ([4]; strain KP-Mo-5): 8 µg/mL | MIC of colistin in the presence of 60 μM BBN149 ([4]; strain KP-Mo-6): 4 µg/mL | MIC of colistin in the presence of 60 μM BBN149 ([4]; strain KP-Mo-11): 8 µg/mL | MIC of colistin in the presence of 60 μM BBN149 ([4]; strain KP-Mo-16): 8 µg/mL | reduction of MIC of colistin (times) [5]: 4 times | concentration of compound reducing MIC of colistin by 4 times ([5]; MIC of colistin 64 to 16 μg/ml, PA14 col^R 5): ≥ 16 µM | reduction of MIC of colistin (times) [5, 14]: 8 times

C[C@@]12CCC3[C@@](CCC4[C@@](C)(COC(=O)C(=O)O)CCC[C@]43C)(CC1)C2 (stereo partly drawn) [FDO-H, ent-beyeran-18-O-oxalic acid]
Average percentage of cell viability (±standard deviation) [1, 6]: 106.31 ± 17.23% | Average percentage of cell viability (±standard deviation) [1, 7]: 94.57 ± 12.67% | Average percentage of cell viability (±standard deviation) [1, 8]: 100.25 ± 23.84% | Average percentage of cell viability (±standard deviation) [1, 9]: 94.06 ± 3.88% | Average percentage of cell viability (±standard deviation) [1, 15]: 93.65 ± 11.27% | Average percentage of cell viability (±standard deviation) [1, 10]: 97.14 ± 12.19% | Average percentage of cell viability (±standard deviation) [1, 11]: 98.42 ± 16.71% | Average percentage of cell viability (±standard deviation) [1, 12]: 76.51 ± 12.64% | IC50 [3, 13]: < 250 µM | IC50 ([3]; read-out: IC50, synergy with colistin (8 μg/ml), PA14 ColR5, colistin 8 μg/ml (sub-inhibitory), minimum concentration causing at least 50% growth inhibition, 24 h): 7.81 µM | concentration of compound reducing MIC of colistin by 4 times [5]: ≥ 4 µM | reduction of MIC of colistin (times) ([5]; compound ≥4 μM, PA14 col^R 5): 4 times | reduction of MIC of colistin (times) [5, 14]: 8 times

C[C@@]12CCC3[C@@](CCC4[C@@]3(C)CCC[C@@]4(C)C(=O)OC3OC(CO)C(O)C(O)C3O)(CC1)C2 (stereo partly drawn) [SR4, glucopyranosyl β-D ester of ent-beyeran-19-oic acid]
melting point: 160 °C | Average percentage of cell viability (±standard deviation) [1, 6]: 96.35 ± 9.42% | Average percentage of cell viability (±standard deviation) [1, 7]: 92.31 ± 3.26% | Average percentage of cell viability (±standard deviation) [1, 8]: 92.44 ± 2.11% | Average percentage of cell viability (±standard deviation) [1, 9]: 97.27 ± 5.61% | Average percentage of cell viability (±standard deviation) [1, 15]: 101.69 ± 4.39% | Average percentage of cell viability (±standard deviation) [1, 10]: 99.27 ± 2.43% | Average percentage of cell viability (±standard deviation) [1, 11]: 106.23 ± 5.52% | Average percentage of cell viability (±standard deviation) [1, 12]: −1.11 ± 2.02% | reduction in cell viability ([1]; 16HBE, highest concentration (250 μM), 18 hours): total reduction of cell viability | IC50 [3, 13]: > 250 µM | IC90 ([3]; PA14 ColR5, colistin 8 μg/ml (sub-inhibitory), minimum concentration causing at least 90% growth inhibition, 24 h): > 250 µM | concentration of compound reducing MIC of colistin by 4 times [5]: 125 µM | reduction of MIC of colistin (times) ([5]; compound 125 μM only, PA14 col^R 5): 4 times

colistin [reference compound]
MIC of colistin with 0.6% DMSO as a control ([2]; strain KK1): 0.5 µg/mL | MIC of colistin with 0.6% DMSO as a control ([2]; strain KK1 col^R 1): 128 µg/mL | MIC of colistin with 0.6% DMSO as a control ([2]; strain KK27): 0.5 µg/mL | MIC of colistin with 0.6% DMSO as a control ([2]; strain KK27 col^R 6): 64 µg/mL | MIC of colistin with 0.6% DMSO as a control ([2]; strain PA14): 0.5 µg/mL | MIC of colistin with 0.6% DMSO as a control ([2]; strain PA14 col^R 5): 64 µg/mL | MIC of colistin with 0.6% DMSO as a control ([2]; strain TR1): 0.5 µg/mL | MIC of colistin with 0.6% DMSO as a control ([2]; strain TR1 col^R 6): 16 µg/mL | MIC of colistin with 0.6% DMSO as a control ([4]; strain KP-Mo-3): 128 µg/mL | MIC of colistin with 0.6% DMSO as a control ([4]; strain KP-Mo-5): 128 µg/mL | MIC of colistin with 0.6% DMSO as a control ([4]; strain KP-Mo-6): 32 µg/mL | MIC of colistin with 0.6% DMSO as a control ([4]; strain KP-Mo-11): 64 µg/mL | MIC of colistin with 0.6% DMSO as a control ([4]; strain KP-Mo-16): 64 µg/mL
